This note sets out measurements from patent US20240383874A1, “BENZENE RING DERIVATIVE, AND COMPOSITION AND PHARMACEUTICAL USE THEREOF” (Xizang Haisco Pharmaceutical Co., Ltd., priority 2020, published 2024).

Structures are written as SMILES. Structures can show the parent of a compound that is named as a salt.

The test system of the test is 22RV1 cells. The test is described as follows: Experiment 2 on inhibiting 22RV1 cell proliferation (7 days, CellTiter-Glo). Type of test: cell-based. As to conditions: Homo sapiens, 22Rv1, 168 h, 1% css-FBS phenol red-free medium, incubated with compound 7 days, read-out: IC50 values on proliferation inhibition of 22RV1 cells. The essentials: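 22RV1 cells plated at 2000/well in phenol red-free medium with 1% css-FBS and treated next day with compound for 7 days at 37 °C. Viability read by CellTiter-Glo luminescence relative to DMSO vehicle; IC50 from dose-response fit.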
Consider `CC(C)(c1ccc(OCc2ccnc(N3CC4(CCN(CC5CCN(c6ccc7c(c6)C(=O)N(C6CCC(=O)NC6=O)C7=O)CC5)CC4)C3)n2)cc1)c1cc(Cl)cc(C#N)c1` (stereo not shown) [Compound 69 trifluoroacetate, 3-chloro-5-(2-(4-((2-(7-((1-(2-(2,6-dioxopiperidin-3-yl)-1,3-dioxoisoindolin-5-yl)piperidin-4-yl)methyl)-2,7-diazaspiro[3.5]nonan-2-yl)pyrimidin-4-yl)methoxy)phenyl)propan-2-yl)benzonitrile], for which the IC50 was found to be 371 nM. For `CC(C)(c1ccc(OCc2ccnc(N3CC4(CCN(CC5CN(c6ccc7c(c6)C(=O)N(C6CCC(=O)NC6=O)C7=O)C5)CC4)C3)n2)cc1)c1cc(Cl)cc(C#N)c1` (stereo not shown) [Compound 70 trifluoroacetate, 3-chloro-5-(2-(4-((2-(7-((1-(2-(2,6-dioxopiperidin-3-yl)-1,3-dioxoisoindolin-5-yl)azetidin-3-yl)methyl)-2,7-diazaspiro[3.5]nonan-2-yl)pyrimidin-4-yl)methoxy)phenyl)propan-2-yl)benzonitrile] the value was 612 nM; for `Cn1c(=O)n(C2CCC(=O)NC2=O)c2ccc(CN3CC(N4CCC(N5CCN(c6nccc(COc7ccc(C(C)(C)c8cc(Cl)cc(C#N)c8)cc7)n6)CC5)CC4)C3)cc21` (stereo not shown) [Compound 71 trifluoroacetate, 3-chloro-5-(2-(4-((2-(4-(1-(1-((1-(2,6-dioxopiperidin-3-yl)-3-methyl-2-oxo-2,3-dihydro-1H-benzo[d]imidazol-5-yl)methyl)azetidin-3-yl)piperidin-4-yl)piperazin-1-yl)pyrimidin-4-yl)methoxy)phenyl)propan-2-yl)benzonitrile], 811 nM. For `CC(C)(c1ccc(OCc2ccnc(N3CC4CN(CC5CCN(c6ccc7c(c6)C(=O)N(C6CCC(=O)NC6=O)C7=O)CC5)CC4C3)n2)cc1)c1cc(Cl)cc(C#N)c1` (stereo not shown) [Compound 72 trifluoroacetate, 3-chloro-5-(2-(4-((2-(5-((1-(2-(2,6-dioxopiperidin-3-yl)-1,3-dioxoisoindolin-5-yl)piperidin-4-yl)methyl)hexahydropyrrolo[3,4-c]pyrrol-2(1H)-yl)pyrimidin-4-yl)methoxy)phenyl)propan-2-yl)benzonitrile] the value was 464 nM. For `CC(C)(c1ccc(OCc2ccnc(N3CC4CN(CC5CN(c6ccc7c(c6)C(=O)N(C6CCC(=O)NC6=O)C7=O)C5)CC4C3)n2)cc1)c1cc(Cl)cc(C#N)c1` (stereo not shown) [Compound 73 trifluoroacetate, 3-chloro-5-(2-(4-((2-(5-((1-(2-(2,6-dioxopiperidin-3-yl)-1,3-dioxoisoindolin-5-yl)azetidin-3-yl)methyl)hexahydropyrrolo[3,4-c]pyrrol-2(1H)-yl)pyrimidin-4-yl)methoxy)phenyl)propan-2-yl)benzonitrile] the value was 97 nM; for `Cn1c(=O)n(C2CCC(=O)NC2=O)c2cccc(CN3CCC(CN4CCC(C5CCN(c6nccc(COc7ccc(C(C)(C)c8cc(Cl)cc(C#N)c8)cc7)n6)CC5)CC4)CC3)c21` (stereo not shown) [Compound 74 trifluoroacetate, 3-chloro-5-(2-(4-((2-(1′-((1-((1-(2,6-dioxopiperidin-3-yl)-3-methyl-2-oxo-2,3-dihydro-1H-benzo[d]imidazol-4-yl)methyl)piperidin-4-yl)methyl)-[4,4′-bipiperidin]-1-yl)pyrimidin-4-yl)methoxy)phenyl)propan-2-yl)benzonitrile], 474 nM. As for `CC(C)(c1ccc(OCc2ccnc(N3CCC4(CC3)CN(C3CCN(C5CN(c6ccc7c(c6)C(=O)N(C6CCC(=O)NC6=O)C7=O)C5)CC3)C4)n2)cc1)c1cc(Cl)cc(C#N)c1` (stereo not shown) [Compound 75 trifluoroacetate, 3-chloro-5-(2-(4-((2-(2-(1-(1-(2-(2,6-dioxopiperidin-3-yl)-1,3-dioxoisoindolin-5-yl)azetidin-3-yl)piperidin-4-yl)-2,7-diazaspiro[3.5]nonan-7-yl)pyrimidin-4-yl)methoxy)phenyl)propan-2-yl)benzonitrile], the IC50 turned out to be 275 nM. For `CC(C)(c1ccc(OCc2ccnc(N3CCC4(CC3)CN(C3CN(C5CN(c6ccc7c(c6)C(=O)N(C6CCC(=O)NC6=O)C7=O)C5)C3)C4)n2)cc1)c1cc(Cl)cc(C#N)c1` (stereo not shown) [Compound 76 trifluoroacetate, 3-chloro-5-(2-(4-((2-(2-(1′-(2-(2,6-dioxopiperidin-3-yl)-1,3-dioxoisoindolin-5-yl)-[1,3′-biazetidin]-3-yl)-2,7-diazaspiro[3.5]nonan-7-yl)pyrimidin-4-yl)methoxy)phenyl)propan-2-yl)benzonitrile], the IC50 was found to be 475 nM. Take `CC(C)(c1ccc(OCc2ccnc(N3CCC(CN4CCC5(CC4)CCN(c4ccc6c(c4)C(=O)N(C4CCC(=O)NC4=O)C6=O)CC5)CC3)n2)cc1)c1cc(Cl)cc(C#N)c1` (stereo not shown) [Compound 77 trifluoroacetate, 3-chloro-5-(2-(4-((2-(4-((9-(2-(2,6-dioxopiperidin-3-yl)-1,3-dioxoisoindolin-5-yl)-3,9-diazaspiro[5.5]undecan-3-yl)methyl)piperidin-1-yl)pyrimidin-4-yl)methoxy)phenyl)propan-2-yl)benzonitrile]: the IC50 turned out to be 192 nM. The figure for `CC(C)(c1ccc(OCc2ccnc(N3CC4CN(C5CCN(C6CN(c7ccc8c(c7)C(=O)N(C7CCC(=O)NC7=O)C8=O)C6)CC5)CC4C3)n2)cc1)c1cc(Cl)cc(C#N)c1` (stereo not shown) [Compound 81 trifluoroacetate, 3-chloro-5-(2-(4-((2-(5-(1-(1-(2-(2,6-dioxopiperidin-3-yl)-1,3-dioxoisoindolin-5-yl)azetidin-3-yl)piperidin-4-yl)hexahydropyrrolo[3,4-c]pyrrol-2(1H)-yl)pyrimidin-4-yl)methoxy)phenyl)propan-2-yl)benzonitrile] is 484 nM; for `CC(C)(c1ccc(OCc2ccnc(N3CC4CN(C5CCN(CC6CCN(c7ccc8c(c7)C(=O)N(C7CCC(=O)NC7=O)C8=O)CC6)CC5)CC4C3)n2)cc1)c1cc(Cl)cc(C#N)c1` (stereo not shown) [Compound 82 trifluoroacetate, 3-chloro-5-(2-(4-((2-(5-(1-((1-(2-(2,6-dioxopiperidin-3-yl)-1,3-dioxoisoindolin-5-yl)piperidin-4-yl)methyl)piperidin-4-yl)hexahydropyrrolo[3,4-c]pyrrol-2(1H)-yl)pyrimidin-4-yl)methoxy)phenyl)propan-2-yl)benzonitrile] it is 413 nM; for `Cn1c(=O)n(C2CCC(=O)NC2=O)c2cccc(N3CCC(C4CCN(CC5CCN(c6nccc(COc7ccc(C(C)(C)c8cc(Cl)cc(C#N)c8)cc7)n6)CC5)CC4)CC3)c21` (stereo not shown) [Compound 85 trifluoroacetate, 3-chloro-5-(2-(4-((2-(4-((1′-(1-(2,6-dioxopiperidin-3-yl)-3-methyl-2-oxo-2,3-dihydro-1H-benzo[d]imidazol-4-yl)-[4,4′-bipiperidin]-1-yl)methyl)piperidin-1-yl)pyrimidin-4-yl)methoxy)phenyl)propan-2-yl)benzonitrile] it is 316 nM. The figure for `CC(C)(c1ccc(OCc2ccnc(N3CCC(CN4CCC5(CC4)CCN(c4ccc6c(c4)C(=O)N(C4CCC(=O)NC4=O)C6=O)CC5)C3)n2)cc1)c1cc(Cl)cc(C#N)c1` (stereo not shown) [Compound 86 trifluoroacetate, 3-chloro-5-(2-(4-((2-(3-((9-(2-(2,6-dioxopiperidin-3-yl)-1,3-dioxoisoindolin-5-yl)-3,9-diazaspiro[5.5]undecan-3-yl)methyl)pyrrolidin-1-yl)pyrimidin-4-yl)methoxy)phenyl)propan-2-yl)benzonitrile] is 278 nM.
